According to patent EP2613758B1, “MACROEMULSIONS WITH IMPROVED DEODORANT EFFICACY” (Beiersdorf AG, priority 2010, dated 2012):

Experiments:
[1] = tested on: Bakterien; test: Investigations of efficacy of amphiphilic actives from micro- and macroemulsions (method not specified)
[2] = tested on: S. epidermidis; test: Suspension test (germ count reduction by the formulation); type: cell-based; conditions: active alone; Ethylhexylglycerin 0,5% in Makroemulsion ohne Octenidine (Abbildung 4)
Protocol: Die Wirksamkeit wurde mittels der Freisetzung von Octenidine aus Makro- bzw. Mikroemulsionen untersucht, wie es beispielhaft in Abbildung 3 und 4 dargestellt ist. Ebenso sind Untersuchungen durchgeführt worden für W/O- Aerosol-Zubereitungen einmal mit und einmal ohne Octenidine, die zu gleichen Ergebnissen geführt haben. In den dargestellten Suspensionstests wurden zu 500µL einer Bakteriensuspension (S. epidermidis) 250 mg der zu testenden Formulierung gegeben (bei der Positivkontrolle nur 250 mg des Bakterienmediums). Diese Mischungen werden mit Medium auf 1000µL aufgefüllt. Die Suspension enthält dann ca. 1*10^6 KBE/mL (KBE: koloniebildende Einheiten). Die Ansätze werden bei 37°C unter Rotation für drei Stunden inkubiert. Nach 0, 20, 60 und 180 min werden Proben genommen, verdünnt und auf Agarplatten ausplattiert. Diese werden 24h bei 37°C zur Anzucht der verbleibenden Keime inkubiert. Gute und in vivo wirksame Deodorant-Formulierungen reduzieren die Keimzahl bereits nach 20 Minuten auf Nachweisgrenze von 100 KBE/mL. Formulierungen mit schlechterer Keimzahl-Reduktion zeigen in vivo keine ausreichende Deoleistung.

Structure (SMILES)	Wirksamkeit ([1]; aus Makroemulsionen)	Wirksamkeit ([1]; in einer Mikroemulsion)	Wirksamkeit im Suspensionstest (Keimzahl-Reduktion) [2]
CC(C)(C)CC(C)(C)c1ccc(OCCOCC[N+](C)(C)Cc2ccccc2)cc1 [Benzethonium chloride]	zeigen eine Wirksamkeit	unwirksam	–
CCCCC(CC)COCC(O)CO (centres unmarked) [Ethylhexylglycerin, 1-(2-Ethylhexyl)glycerinether]	–	–	nicht wirksam
CCCCCCCCN=c1ccn(CCCCCCCCCCn2ccc(=NCCCCCCCC)cc2)cc1.Cl.Cl [Octenidine HCl, N, N'-(1,10-decanediyldi-1[4H]-pyridinyl-4-ylidene)-bis-(octanamine) dihydrochloride]	zeigen eine Wirksamkeit	–	gewünschte Wirksamkeit
